Here are results for 19 molecules from patent publication US8080668B2, “Thiazoles derivatives as AMPK activator” (Dr. Reddy's Laboratories Limited, priority 2005, dated 2011).

Structures are written as SMILES.

For data set [1], the system named is AMPK. In words: AMPK activation potential, cell based ELISA with p-AMPK specific antibody, L6 skeletal muscle cells. To be noted: 10 μM compound, 24 hours, normalized to metformin at 2 mM = 100%. The procedure:
(§1) The AMPK activation potential percentages in this specification are calculated with respect to the already known AMPK activator metformin. The percentages are obtained by normalizing the values obtained at concentrations in the range of 2 μM to 10 μM with that of metformin by considering the values obtained for metformin at 2 mM concentrations as 100%. However, the AMPK activation potential percentages can also be calculated with respect to other known AMPK activators also.
(§2) AMPK activation potential of the compounds of formula (I) was evaluated using a cell based ELISA approach. L6 muscle skeletal muscle and Hep G2 hepatoma liver cells were cultured for 48 hours prior to drug addition at various concentrations. Twenty four hours later, the cells were fixed and the ELISA plate developed following standard protocol using p-AMPK specific antibody.
(§3) Various cell lines such as HepG2 and L6 were revived from glycerol stocks (ATCC). The cells were maintained in a T 75 culture flask-containing medium (DMEM +10% fetal calf serum). On reaching a confluence of 70% to 80%, the cells were seeded in a 96 well plate at a density of 10×10^3 cells per well in DMEM +10% FCS medium. The plates were then incubated at 37° C. with 5% CO2 for 48 hours. Various concentrations of drugs were prepared in DMSO and diluted to required concentration with the medium and incubated at 37° C. with 5% CO2 for 24 hours. Cells were fixed with 4% formaldehyde in PBS for 30 minutes at 25-35° C. and washed three times with PBS containing 0.1% Triton X-100. Endogenous peroxidase was quenched with 0.6% H2O2 in PBS-T for 30 minutes and washed three times in PBS-T. The cells were then blocked with 10% FCS in PBS-T for 1hour. The cells were incubated for 8-12 hours with various concentrations of primary antibody in PBS-T containing 5% BSA at 4° C., followed by washing three times with PBS-T for 5 minutes and incubating with a secondary antibody (HRP conjugated 1:500 in PBS-T with 5% BSA for 1 hour at 25-35° C. The cells were washed three times with PBS-T for 5 minutes and twice with PBS and incubated with 100 μl TMB/H2O2 color developing solution for 15 minutes. The reaction was stopped with 50 μl of 1M H2SO4. The plate was then read at 460 nm using ELISA plate reader.
(§4) AMPK activation percentages for various compounds are given in the table below (AMPK activation potential percentages are obtained by normalizing the values obtained at 10 μM concentration with that of metformin by considering the values obtained for metformin at 2 mM concentrations as 100%).
A general note: In an ELISA, binding on a coated surface is turned into a signal by an enzyme label.

For data set [2], the system named is AMPK. In words: AMPK activation potential, cell based ELISA with p-AMPK specific antibody, Hep G2 hepatoma liver cells. As to conditions: 10 μM compound, 24 hours; normalized to metformin at 2 mM = 100%; HepG2 cells. As to the method:
as §1, §2, §3, §4

`O=C(O)Cc1csc(Nc2ccc(OC(F)(F)F)cc2)n1` [Example 1-e, [2-(4-Trifluoromethoxy-phenylamino)-thiazol-4-yl]-acetic acid]: in the data set on AMPK [1], the “AMPK % activation (at 10 μM) L6 skeletal muscle cells” value was determined as 94.09%. Moreover, the “AMPK % activation (at 10 μM) HepG-2 hepatoma liver cells” value in the data set on AMPK [2] is given as 100.29%.
Take `O=C(O)Cc1csc(Nc2ccc(F)cc2)n1` [Example 1-a, [2-(4-Fluoro-phenylamino)-thiazol-4-yl]-acetic acid]: the “AMPK % activation (at 10 μM) L6 skeletal muscle cells” value with AMPK [1] is listed as 81%. Moreover, in the data set on AMPK [2], the “AMPK % activation (at 10 μM) HepG-2 hepatoma liver cells” value came to 97.9%.
One may read the melting point as the temperature of the solid-liquid transition. As for `Cc1nc(-c2ccc(Nc3nc(C(=O)O)cs3)cc2)cs1` [Example 2-b, 2-[4-(2-Methyl-thiazol-4-yl)-phenylamino]-thiazole-4-carboxylic acid], the melting point was in the range of 290 to 292 °C.
With `O=C(O)c1csc(Nc2ccc(-c3csc(-c4ccccc4)n3)cc2)n1` [Example 2-c, 2-[4-(2-Phenyl-thiazol-4-yl)-phenylamino]-thiazole-4-carboxylic acid], the melting point is 283 to 286 °C. In addition, the “AMPK % activation (at 10 μM) L6 skeletal muscle cells” value in the data set with AMPK [1] is listed as 102.19%. The “AMPK % activation (at 10 μM) HepG-2 hepatoma liver cells” value with AMPK [2] came to 96.35%.
Consider `O=C(O)Cc1csc(Nc2ccc(O)cc2)n1` [Example 1-s, [2-(4-Hydroxy-phenylamino)-thiazol-4-yl]-acetic acid], for which the “AMPK % activation (at 10 μM) L6 skeletal muscle cells” value in the data set on AMPK [1] stood at 92.35%. Also, in the data set on AMPK [2], the “AMPK % activation (at 10 μM) HepG-2 hepatoma liver cells” value is listed as 86.08%.
Take `O=C(O)Cc1csc(Nc2ccc(-c3csc(-c4ccc(C(F)(F)F)cc4)n3)cc2)n1` [Example 1-l, (2-{4-[2-(4-Trifluoromethyl-phenyl)-thiazol-4-yl]-phenylamino}-thiazol-4-yl)-acetic acid]: the melting point was 171 to 174 °C. In the data set on AMPK [1], the “AMPK % activation (at 10 μM) L6 skeletal muscle cells” value came out at 104.37%. Moreover, the “AMPK % activation (at 10 μM) HepG-2 hepatoma liver cells” value with AMPK [2] was 85.27%.
In the case of `Cc1ccc(Nc2nc(CC(=O)O)cs2)cc1` [Example 1-d, (2-p-Tolylamino-thiazol-4-yl)-acetic acid], in the data set with AMPK [1], the “AMPK % activation (at 10 μM) L6 skeletal muscle cells” value is 99.55%. The “AMPK % activation (at 10 μM) HepG-2 hepatoma liver cells” value with AMPK [2] was 97.11%.
`Cc1nc(-c2ccc(Nc3nc(CC(=O)O)cs3)cc2)cs1` [Example 1-n, {2-[4-(2-Methyl-thiazol-4-yl)-phenylamino]-thiazol-4-yl}-acetic acid] had a melting point of 153 to 156 °C. For the same molecule, the “AMPK % activation (at 10 μM) L6 skeletal muscle cells” value with AMPK [1] is given as 83.62%. Besides, the “AMPK % activation (at 10 μM) HepG-2 hepatoma liver cells” value in the data set with AMPK [2] was determined as 98.42%.
`O=C(O)CCc1csc(Nc2ccc(C(F)(F)F)cc2)n1` [Example 3-e, 3-[2-(4-Trifluoromethyl-phenylamino)-thiazol-4-yl]-propionic acid]: the “AMPK % activation (at 10 μM) L6 skeletal muscle cells” value with AMPK [1] was 94.72%. Besides, in the data set on AMPK [2], the “AMPK % activation (at 10 μM) HepG-2 hepatoma liver cells” value is listed as 110.47%.
As for `O=C(O)Cc1csc(Nc2ccc(Cl)cc2)n1` [Example 1-b, [2-(4-Chloro-phenylamino)-thiazol-4-yl]-acetic acid], the “AMPK % activation (at 10 μM) L6 skeletal muscle cells” value with AMPK [1] is recorded as 102.63%. Moreover, the “AMPK % activation (at 10 μM) HepG-2 hepatoma liver cells” value with AMPK [2] was 87.11%.
The matching figures for `CCCCc1ccc(Nc2nc(CC(=O)O)cs2)cc1` [Example 1-p, [2-(4-Butyl-phenylamino)-thiazol-4-yl]-acetic acid]: 102.26% and 75.77%.
`O=C(O)Cc1csc(Nc2ccc(N3CCOCC3)cc2)n1` [Example 1-i, [2-(4-Morpholin-4-yl-phenylamino)-thiazol-4-yl]-acetic acid] returned a melting point of 198 to 199 °C. For the same molecule, the “AMPK % activation (at 10 μM) L6 skeletal muscle cells” value in the data set on AMPK [1] was 109.09%. In addition, the “AMPK % activation (at 10 μM) HepG-2 hepatoma liver cells” value in the data set with AMPK [2] was 69.71%.
As to `O=C(O)c1csc(Nc2ccc(-c3csc(-c4ccc(C(F)(F)F)cc4)n3)cc2)n1` [Example 2-d, 2-{4-[2-(4-Trifluoromethyl-phenyl)-thiazol-4-yl]-phenylamino}-thiazole-4-carboxylic acid], the “AMPK % activation (at 10 μM) L6 skeletal muscle cells” value in the data set with AMPK [1] was 109.70%. Further, in the data set with AMPK [2], the “AMPK % activation (at 10 μM) HepG-2 hepatoma liver cells” value is listed as 83.89%.
The like results for `O=C(O)c1csc(Nc2ccc(Cl)cc2)n1` [Example 2-a, 2-(4-Chloro-phenylamino)-thiazole-4-carboxylic acid] were, in that order, 94.90% and 97.26%.
With `O=C(O)Cc1csc(Nc2ccc(Oc3ccc(Cl)cc3)cc2)n1` [Example 1-k, {2-[4-(4-Chloro-phenoxy)-phenylamino]-thiazol-4-yl}-acetic acid], the melting point fell in the range of 192 to 193 °C. Also, in the data set on AMPK [1], the “AMPK % activation (at 10 μM) L6 skeletal muscle cells” value is given as 96.19%. Besides, the “AMPK % activation (at 10 μM) HepG-2 hepatoma liver cells” value in the data set on AMPK [2] was 97.56%.
For `O=C(O)Cc1csc(Nc2ccc(-c3csc(-c4ccccc4)n3)cc2)n1` [Example 1-m, {2-[4-(2-Phenyl-thiazol-4-yl)-phenylamino]-thiazol-4-yl}-acetic acid], the melting point was in the range of 148 to 150 °C.
The same measure, in the same setting: then `O=C(O)Cc1csc(Nc2ccc(-c3ccccc3)cc2)n1` [Example 1-o, [2-(Biphenyl-4-ylamino)-thiazol-4-yl]-acetic acid], with 158 to 159 °C.
`O=C(O)Cc1csc(Nc2ccc(Sc3ccc(Cl)cc3)cc2)n1` [Example 1-j, {2-[4-(4-Chloro-phenylsulfanyl)-phenylamino]-thiazol-4-yl}-acetic acid] had a melting point of 191 to 192 °C. For the same molecule, the “AMPK % activation (at 10 μM) L6 skeletal muscle cells” value with AMPK [1] is 97.09%. Besides, the “AMPK % activation (at 10 μM) HepG-2 hepatoma liver cells” value in the data set with AMPK [2] worked out at 97.56%.
Take `O=C(O)Cc1csc(Nc2ccc(OCc3ccccc3)cc2)n1` [Example 1-f, [2-(4-Benzyloxy-phenylamino)-thiazol-4-yl]-acetic acid]: the melting point was 116 to 118 °C. The “AMPK % activation (at 10 μM) L6 skeletal muscle cells” value in the data set with AMPK [1] is on record as 88.04%. Further, in the data set on AMPK [2], the “AMPK % activation (at 10 μM) HepG-2 hepatoma liver cells” value is 87.76%.
